In ChEMBL document CHEMBL3397042, “Synthesis of a chondroitin sulfate disaccharide library and a GAG-binding protein interaction analysis” (Bioorg Med Chem Lett, 2015) one finds Kd data, which are given here for 16 compounds.

For the assay, the target named is Fibroblast growth factor 2 (Homo sapiens, UniProt P09038). Put plainly: Binding affinity to basic fibroblast growth factor (unknown origin) using sugar chip immobilized compound by surface plasmon resonance method. (SPR reads the build-up and loss of mass on a sensor chip optically.)
Fibroblast growth factor 2, sequence (P09038 143-288 limits assumed): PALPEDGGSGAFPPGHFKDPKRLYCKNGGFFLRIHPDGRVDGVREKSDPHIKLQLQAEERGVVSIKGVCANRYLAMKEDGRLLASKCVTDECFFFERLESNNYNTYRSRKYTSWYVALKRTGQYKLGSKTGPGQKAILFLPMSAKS

Take `CC(=O)N[C@H]1[C@@H](OC[C@@H](O)[C@@H](O)[C@H](O)[C@@H](O)CNc2cccc(NC(=O)CCCCC3CCSS3)c2)O[C@H](CO)[C@H](O)[C@@H]1O[C@@H]1O[C@H](C(=O)[O-])[C@@H](O)[C@H](O)[C@H]1O.[Na+]` (stereo partly specified): the Kd entry is “Not Active”.

On to `CC(=O)N[C@H]1[C@@H](OC[C@@H](O)[C@@H](O)[C@H](O)[C@@H](O)CNc2cccc(NC(=O)CCCCC3CCSS3)c2)O[C@H](COS(=O)(=O)O)[C@H](OS(=O)(=O)O)[C@@H]1O[C@@H]1O[C@H](C(=O)O)[C@@H](O)[C@H](O)[C@H]1O` (stereo partly specified), for which, for the setting “read-out: Kd”, the Kd is 0.016 µM. Regarding `CC(=O)N[C@H]1[C@@H](OC[C@@H](O)[C@@H](O)[C@H](O)[C@@H](O)CNc2cccc(NC(=O)CCCCC3CCSS3)c2)O[C@H](CO)[C@H](OS(=O)(=O)O)[C@@H]1O[C@@H]1O[C@H](C(=O)O)[C@@H](O)[C@H](OS(=O)(=O)O)[C@H]1O` (stereo partly specified), the dissociation constant Kd (read-out: Kd) stood at 0.041 µM.

For `CC(=O)N[C@H]1[C@@H](OC[C@@H](O)[C@@H](O)[C@H](O)[C@@H](O)CNc2cccc(NC(=O)CCCCC3CCSS3)c2)O[C@H](CO)[C@H](OS(=O)(=O)[O-])[C@@H]1O[C@@H]1O[C@H](C(=O)[O-])[C@@H](O)[C@H](O)[C@H]1O.[Na+].[Na+]` (mixture of isomers), the dissociation constant Kd entry is “Not Active”. In the case of `CC(=O)N[C@H]1[C@@H](OC[C@@H](O)[C@@H](O)[C@H](O)[C@@H](O)CNc2cccc(NC(=O)CCCCC3CCSS3)c2)O[C@H](COS(=O)(=O)O)[C@H](O)[C@@H]1O[C@@H]1O[C@H](C(=O)O)[C@@H](O)[C@H](O)[C@H]1O` (mixture of isomers), where the note is “read-out: Kd”, the Kd was 0.036 µM.

With `CC(=O)N[C@H]1[C@@H](OC[C@@H](O)[C@@H](O)[C@H](O)[C@@H](O)CNc2cccc(NC(=O)CCCCC3CCSS3)c2)O[C@H](CO)[C@H](O)[C@@H]1O[C@@H]1O[C@H](C(=O)O)[C@@H](O)[C@H](O)[C@H]1OS(=O)(=O)O` (mixture of isomers), the Kd (read-out: Kd) stood at 0.062 µM. Same read-out and setting: to `CC(=O)N[C@H]1[C@@H](OC[C@@H](O)[C@@H](O)[C@H](O)[C@@H](O)CNc2cccc(NC(=O)CCCCC3CCSS3)c2)O[C@H](CO)[C@H](O)[C@@H]1O[C@@H]1O[C@H](C(=O)O)[C@@H](O)[C@H](OS(=O)(=O)O)[C@H]1O` (mixture of isomers) belongs 0.025 µM; to `CC(=O)N[C@H]1[C@@H](OC[C@@H](O)[C@@H](O)[C@H](O)[C@@H](O)CNc2cccc(NC(=O)CCCCC3CCSS3)c2)O[C@H](CO)[C@H](OS(=O)(=O)O)[C@@H]1O[C@@H]1O[C@H](C(=O)O)[C@@H](O)[C@H](O)[C@H]1OS(=O)(=O)O` (mixture of isomers), 0.041 µM; to `CC(=O)N[C@H]1[C@@H](OC[C@@H](O)[C@@H](O)[C@H](O)[C@@H](O)CNc2cccc(NC(=O)CCCCC3CCSS3)c2)O[C@H](COS(=O)(=O)O)[C@H](O)[C@@H]1O[C@@H]1O[C@H](C(=O)O)[C@@H](O)[C@H](O)[C@H]1OS(=O)(=O)O` (mixture of isomers), 0.023 µM. Take `CC(=O)N[C@H]1[C@@H](OC[C@@H](O)[C@@H](O)[C@H](O)[C@@H](O)CNc2cccc(NC(=O)CCCCC3CCSS3)c2)O[C@H](COS(=O)(=O)O)[C@H](O)[C@@H]1O[C@@H]1O[C@H](C(=O)O)[C@@H](O)[C@H](OS(=O)(=O)O)[C@H]1O` (mixture of isomers): under “read-out: Kd”, the Kd turned out to be 0.147 µM. For the compound `CC(=O)N[C@H]1[C@@H](OC[C@@H](O)[C@@H](O)[C@H](O)[C@@H](O)CNc2cccc(NC(=O)CCCCC3CCSS3)c2)O[C@H](CO)[C@H](O)[C@@H]1O[C@@H]1O[C@H](C(=O)O)[C@@H](O)[C@H](OS(=O)(=O)O)[C@H]1OS(=O)(=O)O` (mixture of isomers), for the setting “read-out: Kd”, the Kd worked out at 0.095 µM. Turning to `CC(=O)N[C@H]1[C@@H](OC[C@@H](O)[C@@H](O)[C@H](O)[C@@H](O)CNc2cccc(NC(=O)CCCCC3CCSS3)c2)O[C@H](COS(=O)(=O)O)[C@H](OS(=O)(=O)O)[C@@H]1O[C@@H]1O[C@H](C(=O)O)[C@@H](O)[C@H](O)[C@H]1OS(=O)(=O)O` (mixture of isomers), where the note is “read-out: Kd”, the Kd stood at 0.021 µM. On to `CC(=O)N[C@H]1[C@@H](OC[C@@H](O)[C@@H](O)[C@H](O)[C@@H](O)CNc2cccc(NC(=O)CCCCC3CCSS3)c2)O[C@H](COS(=O)(=O)O)[C@H](OS(=O)(=O)O)[C@@H]1O[C@@H]1O[C@H](C(=O)O)[C@@H](O)[C@H](OS(=O)(=O)O)[C@H]1O` (mixture of isomers), for which the Kd (read-out: Kd) was determined as 0.06 µM.

For the compound `CC(=O)N[C@H]1[C@@H](OC[C@@H](O)[C@@H](O)[C@H](O)[C@@H](O)CNc2cccc(NC(=O)CCCCC3CCSS3)c2)O[C@H](CO)[C@H](OS(=O)(=O)O)[C@@H]1O[C@@H]1O[C@H](C(=O)O)[C@@H](O)[C@H](OS(=O)(=O)O)[C@H]1OS(=O)(=O)O` (mixture of isomers), the Kd (read-out: Kd) is 0.052 µM.

As for `CC(=O)N[C@H]1[C@@H](OC[C@@H](O)[C@@H](O)[C@H](O)[C@@H](O)CNc2cccc(NC(=O)CCCCC3CCSS3)c2)O[C@H](COS(=O)(=O)O)[C@H](O)[C@@H]1O[C@@H]1O[C@H](C(=O)O)[C@@H](O)[C@H](OS(=O)(=O)O)[C@H]1OS(=O)(=O)O` (mixture of isomers), the Kd (read-out: Kd) came out at 0.099 µM. The same measure, in the same setting: next, `CC(=O)N[C@H]1[C@@H](OC[C@@H](O)[C@@H](O)[C@H](O)[C@@H](O)CNc2cccc(NC(=O)CCCCC3CCSS3)c2)O[C@H](COS(=O)(=O)O)[C@H](OS(=O)(=O)O)[C@@H]1O[C@@H]1O[C@H](C(=O)O)[C@@H](O)[C@H](OS(=O)(=O)O)[C@H]1OS(=O)(=O)O` (mixture of isomers): 0.0049 µM.

A word on the Kd: it is the constant that tells how readily two partners part at equilibrium.
